How the values were obtained:
Assay type in all cases: cell-based
[1] = test system: MDA-231-MB breast cancer cells; assay: Induction of apoptosis, activated caspase 3 (FITC-DEVD-FMK fluorescence microscopy); details: 25 μM or similar concentrations, 4 hours at 37° C. (FIG. 11)
Procedure: DHA and EPA conjugates of propofol are used to test their activities against MDA-231-MB breast cancer cells. Induction of apoptosis was assayed by incubating cells with DHA, EPA, or propofol alone or DHA, EPA with propofol as well as DHA-, and EPA as propofol conjugates for 4 hours at 37° C.

[2] = test system: breast carcinoma MDA-MB-231 cells; assay: Cell adhesion assay, adherence to human vitronectin; details: 45 min at 37° C., compared with vehicle treated control (FIG. 13)
Procedure: The cell adhesion assay was performed according to the procedure described in Deryugina, E. I., Ratnikov, B., Postnova, T. I., Rozanov, D. V., Strongin, A. Y. (2002) J. Biol. Chem. 277, 9749-9756. The cell adhesion assay was preformed using cyctomatrix of human vitronectin in a 96-well plate (Chemicon International Incorp. of Temecula, Calif.). Each well was incubated with 100 μL of breast carcinoma MDA-MB-231 cells (1×10^5 cells/ml) at 37° C. for 45 min in a CO2 incubator. Individual wells were treated with one of the following: (a) individual agents: DHA, EPA, and propofol; or (b) the combined agents: DHA and propofol, and EPA and propofol; or (c) the conjugates DHA-propofol, or EPA propofol (prepared as described above in Examples 2 and 3). After incubation, the wells were washed three times with PBS, and the adhered cells were stained with crystal violet in 10% ethanol for 5 min at room temperature. The excess stain was subsequently removed by washing the wells six times with PBS. The stained cells were dissolved in 100 microliters (μL) of solubilizing buffer (1:1 mixture of 0.1M NaH2PO4 at a pH of 4.5 in 50% ethanol) and the absorbance of each of the resulting samples was read at 540 nm. The absorbance of dye in the control (vehicle treated cells) was regarded as 100%, and the percent adherence of treated cells was calculated in comparison to that control.

[3] = test system: Jurkat leukemic cells; assay: Jurkat leukemic cell growth and viability (WST-1 Cell Proliferation Kit); details: RVT alone, 10 μM, 24 hours, RPMI media containing 2% serum
Procedure: In order to evaluate the anti-proliferative activity and synergism between DHA and RVT, the two compounds were added separately to cell cultures containing Jurkat leukemic cells. In a separate experiment, a mixture of DHA and RVT components were added to the Jurkat leukemic cell cultures. The results are illustrated in FIG. 8 as a bar graph. Jurkat cells (Jurkat clone E6-1 from American Type Culture Collection of Manassas, Va. (5×10^4/well)) were incubated with either DHA or RVT, or a combination as indicated in a 96-well plate for 24 hours at 37° C. using a 5% CO2 in RPMI media containing 2% serum. Cell growth and viability were determined using a WST-1 Cell Proliferation Kit (sold by Roche Molecular Biochemicals of Indianapolis, Ind.). The control was a “ethanol-treated” control group. For the results illustrated in FIG. 8, the average was taken of three separate experiments. For the combination of DHA and RVT, a student t test provided a P<0.001 relative to the “ethanol-treated” control group. […] However, when the two components were combined into a single formulation, a synergistic inhibition of Jurkat cell growth was observed. The combination of DHA (30 μM) and RVT (10 μM) inhibited cell growth by about 60%. This is indicative of a synergistic interaction between DHA and RVT on cancer cell growth. […]

[4] = test system: Jurkat cells; assay: Jurkat leukemic cell apoptosis (YO-PRO-1 labeling, flow cytometry)
Procedure: The DHA-RVT ester prepared according to Example 1 was dissolved in DMSO. This solution was used to treat Jurkat cells labeled with YO-PRO-1 (sold by Molecular Probes of Oregon), which is a green fluorescent dye used in flagging apoptotic cells. The labeled cells were analyzed using a FACStar-plus flow cytometer equipped with a water-cooled argon laser emitting at a frequency of 488 nm. Detection of the fluorescent probe was ascertained using a 530±30 band-pass filter. The data depicted in FIGS. 10a-c are illustrated in the form of a histogram. The fluorescent intensity is indicative of apoptotic expression. The unfilled histogram represents the labeled, non-treated cells (1); the filled histogram represents the treated cells (2). […] At approximately 1 μM concentration, the DHA-RVT ester induced apoptosis in approximately 50% of the Jurkat cells (FIG. 10b) while at a concentration of 0.1 μM the ester had little effect on the Jurkat cells (FIG. 10c). Concentrations of resveratrol (10 μM) plus DHA (10 μM) have no effect on Jurkat cell growth.

Compound | induction of apoptosis [1] | inhibition of adherence of cancerous cells to vitronectin [2] | further results
CCC=CCC=CCC=CCC=CCC=CCCCC(=O)Oc1c(C(C)C)cccc1C(C)C [EPA-propofol, 2,6-Diisopropylphenyl Eicosopentenoate] | effectively induced apoptosis | inhibition of adherence | –
Oc1ccc(C=Cc2cc(O)cc(O)c2)cc1 [RVT, resveratrol] | – | – | effect on Jurkat cell growth [3]: neither the DHA (up to 30 μM) nor the RVT (10 μM) alone had any significant effect
CCC=CCC=CCC=CCC=CCC=CCC=CCCC(=O)Oc1c(C(C)C)cccc1C(C)C [DHA-propofol, 2,6 Diisopropylphenyldocosa-Hexaenoate] | effectively induced apoptosis | inhibition of adherence | –
CC/C=C\C/C=C\C/C=C\C/C=C\C/C=C\CCCC(=O)O [EPA, eicosopentenoic acid, reference compound] | not very effective | not displayed | –
CC(C)c1cccc(C(C)C)c1O [propofol, 2,6-diisopropylphenol, reference compound] | not very effective | not displayed | –
resveratrol ester of docosahexaenoic acid [DHA-RVT ester] | – | – | effect on Jurkat cells (apoptosis) ([4]; 0.1 μM (FIG. 10c)): little effect; apoptosis of Jurkat cells ([4]; 10 μM (FIG. 10a)): apoptosis in nearly all; Jurkat cells in which apoptosis was induced ([4]; approximately 1 μM (FIG. 10b)): approximately 50%

From patent US8008458B2, “Fatty acid phenolic conjugates” (Indiana University Health Inc., priority 2002, dated 2011)
